Measurements: patent US6737383B1, “Herbicidal oxadiazolidines” (priority 1999, dated 2004)

Key:
pigweed = assay: Test B pre/postemergence pigweed; format: in vivo, Amaranthus retroflexus
Method in brief: (§1)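 Test chemicals in a non-phytotoxic solvent mixture with surfactant were sprayed preemergence onto planted seeds and postemergence onto plants 2 to 18 cm tall (1- to 4-leaf stage). After twelve to sixteen days in a greenhouse, injury was visually rated against untreated controls from 0 (no effect) to 10 (complete control).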

sugar beet = assay: Test B pre/postemergence sugar beet; format: in vivo, Beta vulgaris
Method in brief: as §1

bedstraw = assay: Test B pre/postemergence bedstraw; format: in vivo, Galium aparine
Method in brief: as §1

cocklebur = assay: Test B pre/postemergence cocklebur; format: in vivo, Xanthium strumarium
Method in brief: as §1

giant foxtail = assay: Test B pre/postemergence giant foxtail; format: in vivo, Setaria faberii
Method in brief: as §1

corn = assay: Test B pre/postemergence corn; format: in vivo, Zea mays
Method in brief: as §1

morningglory = assay: Test B pre/postemergence morningglory; format: in vivo, Ipomoea hederacea
Method in brief: as §1

purple nutsedge = assay: Test B pre/postemergence purple nutsedge; format: in vivo, Cyperus rotundus
Method in brief: as §1

surinam grass = assay: Test B pre/postemergence surinam grass; format: in vivo, Brachiaria decumbens
Method in brief: as §1

duck salad = assay: Test B flood test duck salad; format: in vivo, Heteranthera limosa
Method in brief: (§2)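 Each value is a visual injury score relative to controls, with 10 meaning complete control and 0 no effect. Evaluation took place twelve to sixteen days after the 2-leaf-stage plants were treated and kept in the greenhouse.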

soybean = assay: Test B pre/postemergence soybean; format: in vivo, Glycine max
Method in brief: as §1

rice = assay: Test B flood test rice; format: in vivo, Oryza sativa
Method in brief: as §2

wild oat = assay: Test B pre/postemergence wild oat; format: in vivo, Avena fatua
Method in brief: as §1

crabgrass = assay: Test B pre/postemergence crabgrass; format: in vivo, Digitaria sanguinalis
Method in brief: as §1

smallflower flatsedge = assay: Test B flood test smallflower flatsedge; format: in vivo, Cyperus difformis
Method in brief: as §2

blackgrass = assay: Test B pre/postemergence blackgrass; format: in vivo, Alopecurus myosuroides
Method in brief: as §1

[1] = Postemergence, Rate 62 g/ha, scale 0 to 10, 0 is no effect, 10 is complete control
[2] = Postemergence, Rate 250 g/ha, scale 0 to 10, 0 no effect, 10 complete control
[3] = Preemergence, Rate 31 g/ha, visual rating, scale 0 to 10 (0 no effect, 10 complete control)
[4] = Preemergence, Rate 62 g/ha, scale 0 to 10, 0 is no effect, 10 is complete control
[5] = Preemergence, Rate 125 g/ha, scale 0 to 10 (0 no effect, 10 complete control)
[6] = Preemergence, Rate 250 g/ha, scale of 0 to 10 where 0 is no effect and 10 is complete control
[7] = Rate 31 g/ha, Postemergence, scale 0 to 10
[8] = Rate 125 g/ha, Postemergence, scale 0 to 10, 0 no effect, 10 complete control
[9] = Rate 125 g/ha, Postemergence section (flood test species), scale 0 to 10, 0 no effect, 10 complete control
[10] = Rate 500 g/ha, Postemergence section of Table B, 0 to 10 scale (0 no effect, 10 complete control)
[11] = flood test, listed under Postemergence, Rate 250 g/ha, scale 0 to 10, 0 no effect, 10 complete control

CCN(C(=O)n1oc(=O)n(-c2ccccc2OC)c1=O)C1CCCCC1 [Compound 29]
Redroot pigweed plant response rating (pigweed; [1]): 0 | Redroot pigweed plant response rating (pigweed; [2]): 0 | Redroot pigweed plant response rating (pigweed; [3]): 0 | Plant response rating, Redroot pigweed (pigweed; [4]): 0 | Plant response rating, Redroot pigweed (pigweed; [5]): 0 | Plant response rating, Redroot pigweed (pigweed; [6]): 5 | Redroot pigweed plant response rating (pigweed; [7]): 0 | Redroot pigweed plant response rating (pigweed; [8]): 0 | Sugarbeets plant response rating (sugar beet; [1]): 0 | Sugarbeets plant response rating (sugar beet; [2]): 0 | Sugarbeets plant response rating (sugar beet; [3]): 0 | Plant response rating, Sugarbeets (sugar beet; [4]): 0 | Plant response rating, Sugarbeets (sugar beet; [5]): 0 | Plant response rating, Sugarbeets (sugar beet; [6]): 0 | Sugarbeets plant response rating (sugar beet; [8]): 0 | Bedstraw plant response rating (bedstraw; [1]): 0 | Bedstraw plant response rating (bedstraw; [2]): 0 | Bedstraw plant response rating (bedstraw; [3]): 0 | Plant response rating, Bedstraw (bedstraw; [4]): 0 | Plant response rating, Bedstraw (bedstraw; [5]): 0 | Plant response rating, Bedstraw (bedstraw; [6]): 0 | Bedstraw plant response rating (bedstraw; [7]): 0 | Bedstraw plant response rating (bedstraw; [8]): 0 | Cocklebur plant response rating (cocklebur; [1]): 0 | Cocklebur plant response rating (cocklebur; [2]): 0 | Cocklebur plant response rating (cocklebur; [3]): 0 | Plant response rating, Cocklebur (cocklebur; [4]): 0 | Plant response rating, Cocklebur (cocklebur; [5]): 0 | Plant response rating, Cocklebur (cocklebur; [6]): 0 | Cocklebur plant response rating (cocklebur; [7]): 0 | Cocklebur plant response rating (cocklebur; [8]): 0 | Giant foxtail plant response rating (giant foxtail; [1]): 0 | Giant foxtail plant response rating (giant foxtail; [2]): 0 | Giant foxtail plant response rating (giant foxtail; [3]): 0 | Plant response rating, Giant foxtail (giant foxtail; [4]): 0 | Plant response rating, Giant foxtail (giant foxtail; [5]): 1 | Plant response rating, Giant foxtail (giant foxtail; [6]): 3 | Giant foxtail plant response rating (giant foxtail; [7]): 0 | Giant foxtail plant response rating (giant foxtail; [8]): 0 | Corn plant response rating (corn; [1]): 0 | Corn plant response rating (corn; [2]): 0 | Corn plant response rating (corn; [3]): 0 | Plant response rating, Corn (corn; [4]): 0 | Plant response rating, Corn (corn; [5]): 0 | Plant response rating, Corn (corn; [6]): 0 | Corn plant response rating (corn; [7]): 0 | Corn plant response rating (corn; [8]): 0 | Morningglory plant response rating (morningglory; [1]): 0 | Morningglory plant response rating (morningglory; [2]): 0 | Morningglory plant response rating (morningglory; [3]): 0 | Plant response rating, Morningglory (morningglory; [4]): 0 | Plant response rating, Morningglory (morningglory; [5]): 0 | Plant response rating, Morningglory (morningglory; [6]): 0 | Morningglory plant response rating (morningglory; [7]): 0 | Morningglory plant response rating (morningglory; [8]): 0 | Nutsedge plant response rating (purple nutsedge; [1]): 0 | Nutsedge plant response rating (purple nutsedge; [2]): 0 | Nutsedge plant response rating (purple nutsedge; [3]): 0 | Plant response rating, Nutsedge (purple nutsedge; [4]): 0 | Plant response rating, Nutsedge (purple nutsedge; [5]): 0 | Plant response rating, Nutsedge (purple nutsedge; [6]): 0 | Nutsedge plant response rating (purple nutsedge; [7]): 0 | Nutsedge plant response rating (purple nutsedge; [8]): 0 | B. signalgrass plant response rating (surinam grass; [1]): 0 | B. signalgrass plant response rating (surinam grass; [2]): 0 | B. signalgrass plant response rating (surinam grass; [3]): 0 | Plant response rating, B. signalgrass (surinam grass; [4]): 0 | Plant response rating, B. signalgrass (surinam grass; [5]): 0 | Plant response rating, B. signalgrass (surinam grass; [6]): 0 | B. signalgrass plant response rating (surinam grass; [7]): 0 | B. signalgrass plant response rating (surinam grass; [8]): 0 | Ducksalad plant response rating (duck salad; [1]): 0 | Ducksalad plant response rating (duck salad; [9]): 0 | Ducksalad plant response rating (duck salad; [10]): 0 | Ducksalad plant response rating (duck salad; [11]): 0 | Soybean plant response rating (soybean; [1]): 2 | Soybean plant response rating (soybean; [2]): 2 | Soybean plant response rating (soybean; [3]): 0 | Plant response rating, Soybean (soybean; [4]): 0 | Plant response rating, Soybean (soybean; [5]): 0 | Plant response rating, Soybean (soybean; [6]): 0 | Soybean plant response rating (soybean; [8]): 2 | Rice plant response rating (rice; [1]): 0 | Rice plant response rating (rice; [9]): 0 | Rice plant response rating (rice; [10]): 0 | Rice plant response rating (rice; [11]): 0 | Wild oats plant response rating (wild oat; [1]): 0 | Wild oats plant response rating (wild oat; [2]): 0 | Wild oats plant response rating (wild oat; [3]): 0 | Plant response rating, Wild oats (wild oat; [5]): 0 | Plant response rating, Wild oats (wild oat; [6]): 0 | Wild oats plant response rating (wild oat; [8]): 0 | Crabgrass plant response rating (crabgrass; [1]): 0 | Crabgrass plant response rating (crabgrass; [2]): 0 | Crabgrass plant response rating (crabgrass; [3]): 0 | Plant response rating, Crabgrass (crabgrass; [4]): 3 | Plant response rating, Crabgrass (crabgrass; [5]): 4 | Plant response rating, Crabgrass (crabgrass; [6]): 7 | Crabgrass plant response rating (crabgrass; [7]): 0 | Crabgrass plant response rating (crabgrass; [8]): 0 | S. Flatsedge plant response rating (smallflower flatsedge; [1]): 0 | S. Flatsedge plant response rating (smallflower flatsedge; [9]): 0 | S. Flatsedge plant response rating (smallflower flatsedge; [11]): 0 | Blackgrass plant response rating (blackgrass; [1]): 0 | Blackgrass plant response rating (blackgrass; [2]): 0 | Blackgrass plant response rating (blackgrass; [3]): 0 | Plant response rating, Blackgrass (blackgrass; [4]): 0 | Plant response rating, Blackgrass (blackgrass; [5]): 0 | Plant response rating, Blackgrass (blackgrass; [6]): 2 | Blackgrass plant response rating (blackgrass; [7]): 0 | Blackgrass plant response rating (blackgrass; [8]): 0
